Source: patent US12558349B2, “Methods of treating infections in overweight and obese patients using antibiotics” (MELINTA SUBSIDIARY CORP., priority 2013, dated 2026)
Like-named read-outs stand apart in the source and are kept apart here.

Columns and labels:
[1] = tested on: Acute Bacterial Skin and Skin Structure Infections (ABSSSI); assay: Phase 2b clinical trial: Objective Endpoint at 48 to 72 hours (cessation of lesion spread and absence or resolution of fever); assay type: in vivo, human; settings: comparators with and without aztreonam; for Percent Cessation of Spread of Erythema and Absence of Fever at 48 to 72 Hours: secondary endpoint
[2] = Phase 2b clinical trial: adverse events; settings: for Overall adverse event rates: across the Phase 2b study; for Specific limiting toxicity: human, in vivo
[3] = tested on: Confirmed MRSA; assay: Phase 2b clinical trial: Investigators' Global Assessment of Cure in Patients with Confirmed MRSA; assay type: in vivo, human; settings: comparators with and without aztreonam; for Response Rate, Investigators' Global Assessment of Cure in Patients with Confirmed MRSA: MITT; for Percent Clinical Cure (MITT): patients with confirmed MRSA
From the text: (§1) The term “cure” or “Investigators' Global Assessment of Cure” as used herein refers to complete resolution of all signs and symptoms at the follow-up visit.

[4] = tested on: Acute Bacterial Skin and Skin Structure Infections (ABSSSI); assay: Phase 2b clinical trial: reduction in the size of the lesion at 48 to 72 hours; assay type: in vivo, human
[5] = tested on: Acute Bacterial Skin and Skin Structure Infections (ABSSSI); assay: Phase 2b clinical trial in ABSSSI: Investigators' Global Assessment of Cure; assay type: in vivo, human; settings: for Response Rate, Investigators' Global Assessment of Cure: ITT; for Response Rate, Investigators' Global Assessment of Cure / Percent Clinical Cure (ITT): delafloxacin 300 mg BID, Zyvox 600 mg BID, vancomycin 1,000 to 2,000 mg BID, comparators with and without aztreonam; for Percent Clinical Cure (ITT): Investigators' Global Assessment of Cure; for Clinical activity with increased patient weight: Phase 2b data by weight/BMI
From the text: as §1

[6] = human, in vivo

Row | Structure (SMILES) | Response Rate, Objective Endpoint at 48 to 72 hours [1] | Percent Cessation of Spread of Erythema and Absence of Fever at 48 to 72 Hours [1] [%] | Leading adverse event ([2]; Phase 2b study) | Most common specific adverse event ([2]; Phase 2b study) | Overall adverse event rates [2] [%] | Specific limiting toxicity [2] | Response Rate, Investigators' Global Assessment of Cure in Patients with Confirmed MRSA [3] | Percent Clinical Cure (MITT) [3] [%] | Response Rate, Investigators' Global Assessment of Cure [5] | Percent Clinical Cure (ITT) [5] [%] | Clinical activity with increased patient weight [5] | further results
1 | Nc1nc(-n2cc(C(=O)O)c(=O)c3cc(F)c(N4CC(O)C4)c(Cl)c32)c(F)cc1F [Delafloxacin, 1-(6-amino-3,5-difluoro-2-pyridinyl)-8-chloro-6-fluoro-1,4-dihydro-7-(3-hydroxy-1-azetidinyl)-4-oxo-3-quinolinecarboxylic acid] | 61/78 | 78.2 | gastrointestinal, or GI, disorder | mild to moderate diarrhea | 74 | no specific limiting toxicity | 19/29 | 65.56 | 57/81 | 70.4 | maintained | Percent Cessation of Spread of Erythema and Absence of Fever at 48 to 72 Hours ([1]; listed as delafloxacin): approximately 78%; Evidence for toxicities common in the fluoroquinolone class (phototoxicity, elevated liver enzymes, dysglycemia, QT prolongation) ([2]; Phase 2b study): did not demonstrate evidence; Percentage of patients with a 30% or greater reduction in the size of the lesion, versus comparators [4]: greater percentage of patients; Efficacy compared to vancomycin, primary endpoint Investigators' Global Assessment of Cure ([5]; 95% Confidence Interval −30.3%, −2.3%, p=0.031): statistically significant efficacy advantage
2 | CN[C@H](CC(C)C)C(=O)N[C@H]1C(=O)N[C@@H](CC(N)=O)C(=O)N[C@H]2C(=O)N[C@H]3C(=O)N[C@H](C(=O)N[C@H](C(=O)O)c4cc(O)cc(O)c4-c4cc3ccc4O)[C@H](O)c3ccc(c(Cl)c3)Oc3cc2cc(c3O[C@@H]2O[C@H](CO)[C@@H](O)[C@H](O)[C@H]2O[C@H]2C[C@](C)(N)[C@H](O)[C@H](C)O2)Oc2ccc(cc2Cl)[C@H]1O [Vancomycin] | 69/95 | 72.6 | disorders of the skin | pruritus | 65 |  | 21/32 | 65.6 | 53/98 | 54.1 | decline | Percent Cessation of Spread of Erythema and Absence of Fever at 48 to 72 Hours ([1]; listed as vancomycin): ~73%; Patients who experienced renal issues ([2]; Phase 2b study arm): three; Renal failures ([2]; Phase 2b study arm, among the renal issues): two; Specific limiting toxicity [6]: kidney
3 | CC(=O)NC[C@H]1CN(c2ccc(N3CCOCC3)c(F)c2)C(=O)O1 [Zyvox, N-[[(5S)-3-[3-fluoro-4-(4-morpholinyl)phenyl]-2-oxo-5-oxazolidinyl]methyl]acetamide] | 56/75 | 74.7 | GI disorder | nausea | 72 | bone marrow | 21/34 | 61.8 | 50/77 | 84.9 | decline | Percent Cessation of Spread of Erythema and Absence of Fever at 48 to 72 Hours ([1]; listed as linezolid): ~75%; Subjects who experienced thrombocytopenia ([2]; Phase 2b study arm): two
